Activity calls are given as the source filed them. The calls are words filed in the database; no cut-off is given here.
Each compound was assayed against 3-phosphoinositide-dependent protein kinase 1 (Homo sapiens) (UniProt O15530) (assay: Inhibition of sucrose loaded POPC/POPE/POPS/PtdIns(3,4,5)P3 (59:20:20:1) liposome binding to eGFP-fused PDK1 PH domain (unknown origin) expressed in Escherichia coli BL21 at 10 uM after 10 mins by fluorescence spectrophotometry based pull down assay).
Sequence of 3-phosphoinositide-dependent protein kinase 1 (Homo sapiens) (O15530 whole entry, looked up, the tested form may be a part): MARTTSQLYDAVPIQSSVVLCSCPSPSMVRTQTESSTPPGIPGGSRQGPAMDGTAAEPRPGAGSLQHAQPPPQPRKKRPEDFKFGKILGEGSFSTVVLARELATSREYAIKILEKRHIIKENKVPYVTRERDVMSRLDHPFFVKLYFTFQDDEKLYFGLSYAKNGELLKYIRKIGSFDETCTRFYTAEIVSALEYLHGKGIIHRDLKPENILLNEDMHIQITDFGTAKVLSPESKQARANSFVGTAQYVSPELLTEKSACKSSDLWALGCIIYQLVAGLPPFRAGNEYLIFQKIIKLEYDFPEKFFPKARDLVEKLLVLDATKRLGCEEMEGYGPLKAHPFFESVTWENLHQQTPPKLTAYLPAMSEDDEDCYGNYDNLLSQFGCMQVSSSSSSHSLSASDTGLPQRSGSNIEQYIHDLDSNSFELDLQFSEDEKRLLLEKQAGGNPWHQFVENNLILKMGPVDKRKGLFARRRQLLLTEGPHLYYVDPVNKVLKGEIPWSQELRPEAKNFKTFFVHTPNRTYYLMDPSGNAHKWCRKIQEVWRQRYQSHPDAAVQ
`O=c1cc(-c2ccccc2)oc2cc(O)cc(O)c12` was tested, and the inhibition was “Active”.
In the case of `O=c1c(O)c(-c2ccccc2)oc2cc(O)cc(O)c12`, the inhibition is reported as “Active”.
`O=c1cc(-c2ccccc2)oc2ccccc12` was tested, and the inhibition was “Active”.
`O=c1c(O)c(-c2ccc(O)c(O)c2)oc2cc(O)ccc12` was tested, and the inhibition was “Active”.
In the case of `COc1ccc2c(=O)cc(-c3ccccc3)oc2c1OC`, the inhibition is reported as “Active”.
`COc1cc(OC)c2c(=O)cc(-c3ccccc3)oc2c1` was tested, and the inhibition was “Active”.
`O=c1cc(-c2ccc(O)cc2)oc2cc(O)ccc12` was tested, and the inhibition was “Active”.

These compounds were tested against 3-phosphoinositide-dependent protein kinase 1 (Homo sapiens) (UniProt O15530) (assay: Inhibition of sucrose loaded POPC/POPE/POPS/PtdIns(3,4,5)P3 (59:20:20:1) liposome binding to eGFP-fused PDK1 PH domain (unknown origin) expressed in Escherichia coli BL21 after 10 mins by fluorescence spectrophotometry based pull down assay).
`O=c1c(O)c(-c2cc(O)c(O)c(O)c2)oc2cc(O)cc(O)c12` was tested, and the inhibition was “Dose-dependent effect”.
`O=c1c(O)c(-c2ccc(O)c(O)c2)oc2cc(O)cc(O)c12` was tested, and the inhibition was “Dose-dependent effect”.
With `O=c1c(O)c(-c2ccc(O)c(O)c2)oc2cc(O)ccc12` the inhibition was “Dose-dependent effect”.
`O=c1c(O)c(-c2ccc(O)c(O)c2)oc2c(O)c(O)cc(O)c12` was tested, and the inhibition was “Dose-dependent effect”.

Reference: ChEMBL document CHEMBL4000226, “Inhibitory potential of flavonoids on PtdIns(3,4,5)P3 binding with the phosphoinositide-dependent kinase 1 pleckstrin homology domain” (Bioorg Med Chem Lett, 2017)
